The values that follow come from US7897567B2, “Methods of protecting against radiation damage using alpha thymosin” (SciClone Pharmaceuticals, Inc., priority 2002, dated 2011).

The conditions of data set [1]: subcutaneously injected; cited from earlier work.
Data set [2] concerns clonogenic cells of the small intestine (crypts). Kind of data set: Small intestine crypt survival after 13Gy X-irradiation in BDF1 mice. The data set is classed as in vivo. From the text:
Radiation exposure may damage or kill cells. Therefore, stem and clonogenic cells of the small intestine were exposed to radiation, treated and monitored to observe the effectiveness of the treatment. There are thought to be between four and sixteen actual stem cells in each crypt of the small intestine. There are also a further reserve of clonogneic cells which are capable of regenerating the crypt when all the actual stem cells have been killed. The survival of these clonogenic cells is therefore key to the survival of the crypt and the restoration of an intact epithelial lining following cytotoxic injury (only one clonogenic cell need survive to ensure the survival of the crypt, and therefore maintenance of an intact epithelium). Growth factors and related molecules can be used to manipulate the sensitivity of these cells to cytotoxic agents, and thereby reduce the severity of gastrointestinal and oral mucositis. Factors given prior to a cytotoxic insult may increase clonogenic cell number (thereby increasing the probability of clonogen survival) or act to arrest the cell cycle in such cells (thereby making them more resistant to damage or death). […] A combination of both protocols could give maximum protection to the epithelium.
36 adult male BDF1 mice (aged 10-12 weeks) were used. The animals were divided into 6 groups and were treated as follows: (1) Control mice, (2) Irradiated, untreated mice, (3) Mice receiving 3 mg/kg thymosin ip 3 hrs prior to irradiation, (4) Mice receiving vehicle ip 3 hrs prior to irradiation, (5) Mice receiving 3 mg/kg thymosin ip 3 times daily for 3 days prior to irradiation, (6) Mice receiving vehicle ip 3 times daily for 3 days prior to irradiation.
The injections were given at 9:00 (3 times treatment) or 12:00 (1 time treatment). At 3:00 on day 3, intestinal damage was induced using a single dose of 13Gy (Gray) X-irradiation.
4 days after irradiation the animals were culled. The small intestine was removed and fixed in Carnoy's fixative prior to processing for histological analysis. 3 um sections were cut and stained with haematoxylin and eosin. Surviving crypts with one or more clonogenic cells are clearly visible in the irradiated sections. […]
For each animal ten intestinal circumferences were analyzed (60 per group). […] The number of surviving crypts per circumference were scored and the average per group determined. Only crypts containing 10 or more strongly H&E stained cells (excluding Paneth cells) and only intact circumference not containing Peyers patches were scored (Peyers patches influence both the number of crypts in a normal circumference and the ability of a crypt to survive insult).
The average crypt width (measured at its widest point) was also measured in order to correct for scoring errors due to crypt size difference. […]

Ends that are not written are not given here.

For “Thymosin alpha 1 (SDAAVDTSSEITTKDLKEKKEVVEEAEN; not fully specified (N-terminus); UniProt P06454 2-29, looked up) [28-amino acid thymic peptide with immunomodulatory properties, homologous to a natural product isolated from thymosin fraction 5 of calf thymus]”, in data set [1], the plasma half-life entry is “about two”. Further, in data set [2] (3 mg/kg ip, single or triple dose, BDF1 mice, 13Gy X-irradiation), the “survival of treatment and adverse effects” value is “no obvious adverse effects”. Further, the “increase in surviving crypts” value in data set [2] (triple dose thymosin vs triple dose vehicle control) amounted to 77%. Besides, the protection factor in data set [2] (triple dose thymosin vs triple dose vehicle control (5.3 vs 3)) is listed as 1.77. Further, in data set [2] (triple dose: 3 mg/kg ip 3 times daily for 3 days prior to 13Gy X-irradiation, BDF1 mice, 4 days after irradiation), the “corrected crypt survival (corrected number of crypts/circumference)” value is reported as 5.3 crypts/circumference.
